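Interpolation was linear, between the two tested concentrations surrounding the appropriate level; five concentrations were tested over 48 hours in 96-well plates. Here, GI50 denotes the concentration required for 50% inhibition of growth. TGI marks complete inhibition of growth.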
How the values were obtained:
Assay in all cases: DTP human tumour cell line panel, 48 h
SK-OV-3 ovarian = tested on: SK-OV-3 ovarian
HT29 colon = tested on: HT29 colon
NCI-H226 lung = tested on: NCI-H226 lung
SK-MEL-28 melanoma = tested on: SK-MEL-28 melanoma
SF-539 CNS = tested on: SF-539 CNS
EKVX NSCLC = tested on: EKVX NSCLC
U251 CNS = tested on: U251 CNS
SN12C renal = tested on: SN12C renal
A549 NSCLC = tested on: A549 NSCLC
A498 renal = tested on: A498 renal

| Compound | TGI (SK-OV-3 ovarian) | TGI (HT29 colon) | TGI (NCI-H226 lung) | TGI (SK-MEL-28 melanoma) | TGI (SF-539 CNS) | TGI (EKVX NSCLC) | TGI (U251 CNS) | TGI (SN12C renal) | TGI (A549 NSCLC) | TGI (A498 renal) | GI50 (A498 renal) | GI50 (SK-OV-3 ovarian) | GI50 (HT29 colon) | GI50 (NCI-H226 lung) | GI50 (SK-MEL-28 melanoma) | GI50 (EKVX NSCLC) | GI50 (U251 CNS) | GI50 (SN12C renal) | GI50 (A549 NSCLC) | GI50 (SF-539 CNS) |
| --- | --- | --- | --- | --- | --- | --- | --- | --- | --- | --- | --- | --- | --- | --- | --- | --- | --- | --- | --- | --- |
| CCOC(=O)c1nc(-c2ccccc2)oc1OCC | > 100 µM | > 100 µM | > 100 µM | > 100 µM | > 100 µM | 38.6 µM | > 100 µM | > 100 µM | > 100 µM | – | – | – | – | – | – | – | – | – | – | – |
| O=C1c2ccccc2CC1C1(O)C(=O)Nc2ccccc21 (stereo unspecified) | > 100 µM | > 100 µM | > 100 µM | > 100 µM | > 100 µM | > 100 µM | – | > 100 µM | > 100 µM | > 100 µM | – | – | – | – | – | – | – | – | – | – |
| CCC1CCc2c(OC)ccc(OCC(=O)O)c2C1=O (stereo unspecified) | > 100 µM | – | > 100 µM | > 100 µM | > 100 µM | > 100 µM | > 100 µM | > 100 µM | > 100 µM | – | – | – | – | – | – | – | – | – | – | – |
| CC1CCC(C(C)C)C(O[C@@H]2OC(=O)C[C@@H]2Sc2ccccc2)C1 (stereo partly specified) | 91.7 µM | 34.3 µM | – | 85.7 µM | 61.8 µM | 93.6 µM | – | 32 µM | 85.9 µM | 74.7 µM | – | – | – | – | – | – | – | – | – | – |
| CCOc1ccccc1/C=N\N=C(\N)N/N=C/c1ccccc1OCC | > 100 µM | > 100 µM | > 100 µM | > 100 µM | – | > 100 µM | > 100 µM | > 100 µM | > 100 µM | > 100 µM | 2.42 µM | 2.93 µM | 2.5 µM | 5.55 µM | 4.51 µM | 4.59 µM | 3.35 µM | 5.89 µM | 4.25 µM | – |
| C/C=C/[C@@H]1OC(=O)C2=C[C@@H](O)[C@@H](/C=C/C)O[C@H]21 | 36.6 µM | 5.89 µM | 13.9 µM | 12.6 µM | 3.49 µM | 21.2 µM | 35.6 µM | 12.6 µM | 34 µM | – | – | 20.5 µM | 2.09 µM | 6.17 µM | 6.38 µM | 7.26 µM | 14.6 µM | 3.76 µM | 15.8 µM | 1.1 µM |
| CCCCNC(=O)NS(=O)(=O)c1ccc(N2N=C(c3cc(C)ccc3C)CC2c2cc(OC)c(OC)c(OC)c2)cc1 (stereo unspecified) | 10.1 µM | 5.04 µM | 13 µM | 4.73 µM | 3.88 µM | – | 5.62 µM | 13.4 µM | 9.78 µM | 6.01 µM | 2.31 µM | 3.53 µM | 2.42 µM | 3.29 µM | 1.97 µM | – | 2.11 µM | 3.36 µM | 2.53 µM | 1.9 µM |
| Cc1cn2c(/C=N/Nc3ccccn3)c(-c3ccc(Cl)c([N+](=O)[O-])c3)nc2s1 | 22.5 µM | – | – | > 50 µM | 3.53 µM | > 50 µM | 15.4 µM | 42.4 µM | 21.9 µM | – | – | 9.95 µM | – | – | 26.5 µM | 21.6 µM | 8.22 µM | 14.3 µM | 8.7 µM | 1.12 µM |
| CCN(CC)CC(C(=O)Nc1c(C)cccc1C)/C(C)=N\NC(=O)c1ccncc1 (stereo unspecified) | > 100 µM | > 100 µM | > 100 µM | > 100 µM | > 100 µM | – | > 100 µM | > 100 µM | > 100 µM | > 100 µM | – | – | – | – | – | – | – | – | – | – |
| CC(=O)Nc1ccc(/C=C/C(=O)c2sc(-c3nc(C)c(C(=O)/C=C/c4ccc(NC(C)=O)cc4)s3)nc2C)cc1 | > 100 µM | > 100 µM | > 100 µM | > 100 µM | > 100 µM | > 100 µM | > 100 µM | > 100 µM | > 100 µM | – | – | – | – | – | – | – | – | – | – | – |
| C=CCC(OCCOCC)c1cc(OCCOCC)ccc1OC (stereo unspecified) | > 100 µM | > 100 µM | > 100 µM | > 100 µM | > 100 µM | > 100 µM | > 100 µM | > 100 µM | > 100 µM | – | – | – | – | – | – | – | – | – | – | – |
| CCC(/C=C/c1ccccc1)=N\Nc1ccc(Cl)c(Cl)c1 | > 100 µM | > 100 µM | 72.7 µM | > 100 µM | 66.1 µM | > 100 µM | > 100 µM | 74.8 µM | > 100 µM | – | – | – | – | – | – | – | – | – | – | – |
| FC(F)(F)c1ccc(-c2cnc(Cl)nc2NCc2cc(C(F)(F)F)cc(C(F)(F)F)c2)cc1 | > 100 µM | > 100 µM | > 100 µM | > 100 µM | > 100 µM | – | > 100 µM | > 100 µM | > 100 µM | 6.87 µM | 1.97 µM | 3.4 µM | 3.26 µM | 2.61 µM | 3.93 µM | – | 2.81 µM | 2.81 µM | 2.81 µM | 3.78 µM |

From PubChem BioAssay (NCI)
